Laboratory results from PMC5218480 (PLoS ONE, 2017).

System: MV-4-11 cells
Test: Gene expression microarray analysis (Affymetrix PrimeView) and GSEA
Assay type: cell-based, human
Set-up: RFU PODN (11730768_x_at) / Fold change /veh PODN (11730768_x_at) / RFU LINC00158 (11744669_a_at) / Fold change /veh LINC00158 (11744669_a_at) / RFU DUSP10 (11751237_a_at) / Fold change /veh DUSP10 (11751237_a_at) / RFU ID3 (11757404_x_at) / Fold change /veh ID3 (11757404_x_at) / RFU PLEKHG5 (11737974_s_at) / Fold change /veh PLEKHG5 (11737974_s_at) / RFU LRRC4B (11730491_at) / Fold change /veh LRRC4B (11730491_at) / RFU GIMAP4 (11747438_a_at) / Fold change /veh GIMAP4 (11747438_a_at) / RFU KRT8 (11758183_x_at) / Fold change /veh KRT8 (11758183_x_at) / RFU CNN1 (11734310_a_at) / Fold change /veh CNN1 (11734310_a_at) / RFU VPS37D (11726825_at) / Fold change /veh VPS37D (11726825_at) / RFU C10orf10 (11716522_x_at) / Fold change /veh C10orf10 (11716522_x_at) / RFU KIR2DL2 /// KIR2DL4 /// KIR2DL5A /// KIR2DL5B /// KIR2DS1 /// KIR2DS2 /// KIR2DS3 /// KIR2DS4 /// KIR3DL3 /// KIR3DL3 /// KIR3DS1 (11738374_at) / Fold change /veh KIR2DL2 /// KIR2DL4 /// KIR2DL5A /// KIR2DL5B /// KIR2DS1 /// KIR2DS2 /// KIR2DS3 /// KIR2DS4 /// KIR3DL3 /// KIR3DL3 /// KIR3DS1 (11738374_at) / RFU C1QL1 (11718748_at) / Fold change /veh C1QL1 (11718748_at) / RFU TMPRSS4 (11747572_a_at) / Fold change /veh TMPRSS4 (11747572_a_at) / RFU HAMP (11756126_x_at) / Fold change /veh HAMP (11756126_x_at) / RFU RNFT2 (11725882_a_at) / Fold change /veh RNFT2 (11725882_a_at) / RFU NR4A2 (11747474_a_at) / Fold change /veh NR4A2 (11747474_a_at) / RFU ABCC12 (11746883_a_at) / Fold change /veh ABCC12 (11746883_a_at) / RFU TMEM136 (11760407_x_at) / Fold change /veh TMEM136 (11760407_x_at) / RFU CLDN22 /// WWC2 (11732394_at) / Fold change /veh CLDN22 /// WWC2 (11732394_at) / RFU HLA-DPB1 (11760878_x_at) / Fold change /veh HLA-DPB1 (11760878_x_at) / RFU SPINT1 (11716480_a_at) / Fold change /veh SPINT1 (11716480_a_at) / RFU GAP43 (11754022_s_at) / Fold change /veh GAP43 (11754022_s_at) / RFU A4GNT (11735810_at) / Fold change /veh A4GNT (11735810_at) / RFU PRB3 (11715151_x_at) / Fold change /veh PRB3 (11715151_x_at) / RFU TUBB4B (11761932_at) / Fold change /veh TUBB4B (11761932_at) / RFU CAPN14 (11732068_a_at) / Fold change /veh CAPN14 (11732068_a_at) / RFU TMCC2 (11721928_a_at) / Fold change /veh TMCC2 (11721928_a_at) / RFU IRGQ (11745062_a_at) / Fold change /veh IRGQ (11745062_a_at) / RFU FAM174B (11720279_a_at) / Fold change /veh FAM174B (11720279_a_at) / RFU TMPRSS4 (11748680_a_at) / Fold change /veh TMPRSS4 (11748680_a_at) / RFU FAM212B (11763350_a_at) / Fold change /veh FAM212B (11763350_a_at) / RFU PLEKHG5 (11743358_a_at) / Fold change /veh PLEKHG5 (11743358_a_at) / RFU ZSCAN30 (11745921_a_at) / Fold change /veh ZSCAN30 (11745921_a_at) / RFU CMKLR1 (11741424_a_at) / Fold change /veh CMKLR1 (11741424_a_at) / RFU LOC101060620 /// MAPK8IP1 (11723275_at) / Fold change /veh LOC101060620 /// MAPK8IP1 (11723275_at) / RFU SPTSSB (11747773_x_at) / Fold change /veh SPTSSB (11747773_x_at) / RFU PRSS12 (11739890_at) / Fold change /veh PRSS12 (11739890_at) / RFU BIN1 (11741810_x_at) / Fold change /veh BIN1 (11741810_x_at) / RFU WNT11 (11732464_a_at) / Fold change /veh WNT11 (11732464_a_at) / RFU C10orf10 (11716521_a_at) / Fold change /veh C10orf10 (11716521_a_at) / RFU C5orf56 (11738089_at) / Fold change /veh C5orf56 (11738089_at) / RFU CYB561 (11721691_x_at) / Fold change /veh CYB561 (11721691_x_at) / RFU ANKRD19P (11752326_a_at) / Fold change /veh ANKRD19P (11752326_a_at) / RFU OR2T12 /// OR2T33 /// OR2T8 (11738714_s_at) / Fold change /veh OR2T12 /// OR2T33 /// OR2T8 (11738714_s_at) / RFU VCAN (11748164_a_at) / Fold change /veh VCAN (11748164_a_at) / RFU JSRP1 (11732532_at) / Fold change /veh JSRP1 (11732532_at) / RFU KRTAP10-11 (11738290_x_at) / Fold change /veh KRTAP10-11 (11738290_x_at) / RFU MYO3A (11730013_a_at) / Fold change /veh MYO3A (11730013_a_at) / RFU EBF3 (11725865_a_at) / Fold change /veh EBF3 (11725865_a_at) / RFU CAMK2N1 (11719241_x_at) / Fold change /veh CAMK2N1 (11719241_x_at) / RFU C5orf56 (11738088_a_at) / Fold change /veh C5orf56 (11738088_a_at) / RFU OLFML3 (11715873_a_at) / Fold change /veh OLFML3 (11715873_a_at) / RFU LOC100653217 /// NTM (11731650_a_at) / Fold change /veh LOC100653217 /// NTM (11731650_a_at) / RFU MAPK11 (11762145_a_at) / Fold change /veh MAPK11 (11762145_a_at) / RFU FIZ1 (11724087_x_at) / Fold change /veh FIZ1 (11724087_x_at) / RFU OASL (11726364_x_at) / Fold change /veh OASL (11726364_x_at) / RFU SOX15 (11748057_x_at) / Fold change /veh SOX15 (11748057_x_at) / RFU CD79A (11719716_a_at) / Fold change /veh CD79A (11719716_a_at) / RFU HIST1H1D (11736915_at) / Fold change /veh HIST1H1D (11736915_at) / RFU CASKIN2 (11723855_a_at) / Fold change /veh CASKIN2 (11723855_a_at) / RFU LOC730098 (11760151_x_at) / Fold change /veh LOC730098 (11760151_x_at) / RFU OR4N2 (11742367_at) / Fold change /veh OR4N2 (11742367_at) / RFU PRRT2 (11749266_a_at) / Fold change /veh PRRT2 (11749266_a_at) / RFU SNX32 (11753110_a_at) / Fold change /veh SNX32 (11753110_a_at) / RFU CDHR5 (11726645_a_at) / Fold change /veh CDHR5 (11726645_a_at) / RFU RCAN1 (11760418_a_at) / Fold change /veh RCAN1 (11760418_a_at) / RFU FAM167A (11723789_a_at) / Fold change /veh FAM167A (11723789_a_at) / RFU FAM26E (11764081_at) / Fold change /veh FAM26E (11764081_at) / RFU ISYNA1 (11749810_s_at) / Fold change /veh ISYNA1 (11749810_s_at) / RFU ACY1 (11761880_at) / Fold change /veh ACY1 (11761880_at) / RFU 11764098_at / Fold change /veh 11764098_at / RFU SAMD14 (11745864_x_at) / Fold change /veh SAMD14 (11745864_x_at) / RFU NPB (11741838_a_at) / Fold change /veh NPB (11741838_a_at) / RFU TMPRSS6 (11731388_a_at) / Fold change /veh TMPRSS6 (11731388_a_at) / RFU KRTAP10-2 (11738614_at) / Fold change /veh KRTAP10-2 (11738614_at) / RFU ARHGAP8 /// PRR5-ARHGAP8 (11727945_x_at) / Fold change /veh ARHGAP8 /// PRR5-ARHGAP8 (11727945_x_at) / RFU KRTAP5-7 /// NADSYN1 (11734609_at) / Fold change /veh KRTAP5-7 /// NADSYN1 (11734609_at) / RFU RASL12 (11751679_a_at) / Fold change /veh RASL12 (11751679_a_at) / RFU CDKN2B (11736163_a_at) / Fold change /veh CDKN2B (11736163_a_at) / RFU PRF1 (11729649_at) / Fold change /veh PRF1 (11729649_at) / RFU, ZNF638 /// ZNF638-IT1 / Fold change vs veh, ZNF638 /// ZNF638-IT1 / RFU, PANK3 / Fold change vs veh, PANK3 / RFU, SH3YL1 / Fold change vs veh, SH3YL1 / RFU, ZEB2 / Fold change vs veh, ZEB2 / RFU, NRIP1 / Fold change vs veh, NRIP1 / RFU, PTTG1IP / Fold change vs veh, PTTG1IP / RFU, CAPN2 / Fold change vs veh, CAPN2 / RFU, MED14 / Fold change vs veh, MED14 / RFU, SNORA58 / Fold change vs veh, SNORA58 / RFU, C1orf63 / Fold change vs veh, C1orf63 / RFU, LRRFIP1 / Fold change vs veh, LRRFIP1 / RFU, NDUFAF7 / Fold change vs veh, NDUFAF7 / RFU, SLC12A2 / Fold change vs veh, SLC12A2 / RFU, IBTK / Fold change vs veh, IBTK / RFU, ESF1 / Fold change vs veh, ESF1 / Fold change vs veh, TMEM50B / RFU, TAOK1 / Fold change vs veh, TAOK1 / RFU, ACBD3 / Fold change vs veh, ACBD3 / RFU, TMA16 / Fold change vs veh, TMA16 / RFU, RWDD3 / Fold change vs veh, RWDD3 / RFU, BCAT1 / Fold change vs veh, BCAT1 / RFU, EDEM3 / Fold change vs veh, EDEM3 / RFU, TMEM33 / Fold change vs veh, TMEM33 / RFU, WDR75 / Fold change vs veh, WDR75 / RFU, AHCTF1 / Fold change vs veh, AHCTF1 / RFU, TFRC / Fold change vs veh, TFRC / RFU, ZDHHC17 / Fold change vs veh, ZDHHC17 / RFU, NOM1 / Fold change vs veh, NOM1 / RFU, ARL8B / Fold change vs veh, ARL8B / RFU, ZBTB11 / Fold change vs veh, ZBTB11 / RFU, TAMM41 / Fold change vs veh, TAMM41 / RFU, KIAA1704 /// LOC100996395 / Fold change vs veh, KIAA1704 /// LOC100996395 / RFU, ING1 / Fold change vs veh, ING1 / RFU, TRMT61B / Fold change vs veh, TRMT61B / RFU, FUBP3 / Fold change vs veh, FUBP3 / RFU, TP53 / Fold change vs veh, TP53 / RFU, TNKS2 / Fold change vs veh, TNKS2 / RFU, ZFP14 / Fold change vs veh, ZFP14 / RFU, ACTR2 / Fold change vs veh, ACTR2 / RFU, PPP3R1 / Fold change vs veh, PPP3R1 / RFU, PIK3R1 / Fold change vs veh, PIK3R1 / RFU, HNRNPA1 / Fold change vs veh, HNRNPA1 / RFU, RNF170 / Fold change vs veh, RNF170 / RFU, ZNF28 / Fold change vs veh, ZNF28 / RFU, RNGTT / Fold change vs veh, RNGTT / RFU, OGT / Fold change vs veh, OGT / RFU, BRD1 / Fold change vs veh, BRD1 / RFU, MARS / Fold change vs veh, MARS / RFU, ZNF655 / Fold change vs veh, ZNF655 / RFU, FAHD1 / Fold change vs veh, FAHD1 / RFU, BDP1 / Fold change vs veh, BDP1 / RFU, LRRCC1 / Fold change vs veh, LRRCC1 / RFU, ARID1A / Fold change vs veh, ARID1A / RFU, ZNF146 / Fold change vs veh, ZNF146 / RFU, ZNF330 / Fold change vs veh, ZNF330 / RFU, GPN3 / Fold change vs veh, GPN3 / RFU, C9orf123 / Fold change vs veh, C9orf123 / RFU, N4BP2L2 / Fold change vs veh, N4BP2L2 / RFU, ARFIP1 / Fold change vs veh, ARFIP1 / RFU, FAM179B / Fold change vs veh, FAM179B / RFU, BCL10 / Fold change vs veh, BCL10 / RFU, UHRF1BP1L / Fold change vs veh, UHRF1BP1L / RFU, BET1 / Fold change vs veh, BET1 / RFU, CNOT2 / Fold change vs veh, CNOT2 / RFU, ZNF268 / Fold change vs veh, ZNF268 / Fold change vs veh, ZNF507 / RFU, DGCR2 / Fold change vs veh, DGCR2 / RFU, WDSUB1 / Fold change vs veh, WDSUB1 / Fold change vs veh, HSP90B1 /// MIR3652 / RFU, ADSS / Fold change vs veh, ADSS / RFU, GK / Fold change vs veh, GK / RFU, ZNF148 / Fold change vs veh, ZNF148 / RFU, TAF9 / Fold change vs veh, TAF9 / RFU, SLC1A5 / Fold change vs veh, SLC1A5 / RFU, SLMO2 / Fold change vs veh, SLMO2 / RFU, ABCC4 / Fold change vs veh, ABCC4 / RFU, LOC101060439 /// RAP1B / Fold change vs veh, LOC101060439 /// RAP1B / RFU, RFX7 / Fold change vs veh, RFX7 / RFU, GTPBP10 / Fold change vs veh, GTPBP10 / RFU, CNEP1R1 / Fold change vs veh, CNEP1R1 / RFU, BIVM-ERCC5 /// ERCC5 / Fold change vs veh, BIVM-ERCC5 /// ERCC5 / RFU, ILF3 / Fold change vs veh, ILF3 / RFU 11762660_at / Fold change /veh 11762660_at / RFU VCAN (11757783_s_at) / Fold change /veh VCAN (11757783_s_at) / RFU DDX43 (11728927_at) / Fold change /veh DDX43 (11728927_at) / RFU KRT8 (11758188_x_at) / Fold change /veh KRT8 (11758188_x_at) / RFU NKD1 (11759106_at) / Fold change /veh NKD1 (11759106_at) / RFU SRD5A1 (11742802_a_at) / Fold change /veh SRD5A1 (11742802_a_at) / RFU TPSAB1 /// TPSB2 (11721975_s_at) / Fold change /veh TPSAB1 /// TPSB2 (11721975_s_at) / RFU GSTM3 (11746129_a_at) / Fold change /veh GSTM3 (11746129_a_at) / RFU IL23R (11737362_x_at) / Fold change /veh IL23R (11737362_x_at) / RFU TMEM51 (11727254_a_at) / Fold change /veh TMEM51 (11727254_a_at) / RFU PIWIL2 (11732686_x_at) / Fold change /veh PIWIL2 (11732686_x_at) / RFU ORM1 (11744905_x_at) / Fold change /veh ORM1 (11744905_x_at) / RFU CCDC152 (11743942_at) / Fold change /veh CCDC152 (11743942_at) / RFU ECM1 (11717891_a_at) / Fold change /veh ECM1 (11717891_a_at) / RFU IL23R (11748794_a_at) / Fold change /veh IL23R (11748794_a_at) / RFU TNFAIP8L3 (11732012_x_at) / Fold change /veh TNFAIP8L3 (11732012_x_at) / RFU MBOAT4 (11741988_at) / Fold change /veh MBOAT4 (11741988_at) / RFU 11764193_at / Fold change /veh 11764193_at / RFU TMEM53 (11763286_at) / Fold change /veh TMEM53 (11763286_at) / RFU MAGEB2 (11727129_at) / Fold change /veh MAGEB2 (11727129_at) / RFU TMEM200A (11744735_a_at) / Fold change /veh TMEM200A (11744735_a_at) / RFU CCDC152 (11751479_a_at) / Fold change /veh CCDC152 (11751479_a_at) / RFU FAM211A (11726209_a_at) / Fold change /veh FAM211A (11726209_a_at) / RFU RGS16 (11746705_a_at) / Fold change /veh RGS16 (11746705_a_at) / RFU VCAN (11755009_s_at) / Fold change /veh VCAN (11755009_s_at) / RFU RHOB (11743442_s_at) / Fold change /veh RHOB (11743442_s_at) / RFU RGS16 (11720943_a_at) / Fold change /veh RGS16 (11720943_a_at) / RFU RGS16 (11720944_at) / Fold change /veh RGS16 (11720944_at) / RFU, VPS4B / Fold change vs veh, VPS4B / RFU, CREB1 / Fold change vs veh, CREB1 / RFU, DNAJC13 / Fold change vs veh, DNAJC13 / RFU, GNAQ / Fold change vs veh, GNAQ / RFU, CDK5R1 / Fold change vs veh, CDK5R1 / RFU, ZRANB3 / Fold change vs veh, ZRANB3 / RFU, CUL4A / Fold change vs veh, CUL4A / RFU, CCNY / Fold change vs veh, CCNY / RFU, UFL1 / Fold change vs veh, UFL1 / RFU, COG3 / Fold change vs veh, COG3 / RFU, DIAPH2 / Fold change vs veh, DIAPH2 / RFU, SKA2 / Fold change vs veh, SKA2 / RFU, AFF3 / Fold change vs veh, AFF3 / RFU, LMF1 / Fold change vs veh, LMF1 / RFU, IPO11 / Fold change vs veh, IPO11 / RFU, DFFB / Fold change vs veh, DFFB / RFU, FOXP1 / Fold change vs veh, FOXP1 / RFU, CARD8 / Fold change vs veh, CARD8 / RFU, STRN3 / Fold change vs veh, STRN3 / RFU, ADK / Fold change vs veh, ADK / RFU, RASSF2 / Fold change vs veh, RASSF2 / RFU, WIPF1 / Fold change vs veh, WIPF1 / RFU, LARP1B / Fold change vs veh, LARP1B / RFU, RASA1 / Fold change vs veh, RASA1 / RFU, RB1 / Fold change vs veh, RB1 / RFU, PPFIA1 / Fold change vs veh, PPFIA1 / RFU, MAT2A / Fold change vs veh, MAT2A / RFU, CCT5 / Fold change vs veh, CCT5 / RFU, WDR92 / Fold change vs veh, WDR92 / RFU, CUX1 / Fold change vs veh, CUX1 / RFU, TTC7A / Fold change vs veh, TTC7A / RFU, TMEM135 / Fold change vs veh, TMEM135 / RFU, DEPTOR / Fold change vs veh, DEPTOR / RFU, CPM / Fold change vs veh, CPM / RFU, DNAJB6 / Fold change vs veh, DNAJB6 / RFU, CACNA2D3 / Fold change vs veh, CACNA2D3 / RFU, DTX4 / Fold change vs veh, DTX4 / RFU, TFCP2 / Fold change vs veh, TFCP2 / RFU, GMCL1 /// GMCL1P1 / Fold change vs veh, GMCL1 /// GMCL1P1 / RFU, AEBP2 / Fold change vs veh, AEBP2 / RFU, SNHG1 /// SNORD22 /// SNORD25 /// SNORD26 /// SNORD27 /// SNORD28 /// SNORD29 /// SNORD31 / Fold change vs veh, SNHG1 /// SNORD22 /// SNORD25 /// SNORD26 /// SNORD27 /// SNORD28 /// SNORD29 /// SNORD31 / Fold change (Aza/veh), C12orf56 (ProbeSet 11735607_a_at) / Fold change (ACY-1035/veh), C12orf56 (ProbeSet 11735607_a_at) / Fold change (Aza/veh), FGFR1OP (ProbeSet 11751329_s_at) / Fold change (ACY-1035/veh), FGFR1OP (ProbeSet 11751329_s_at) / Fold change (Aza/veh), VPS36 (ProbeSet 11739960_a_at) / Fold change (ACY-1035/veh), VPS36 (ProbeSet 11739960_a_at) / RFU SYPL1 (11715823_x_at) / Fold change /veh SYPL1 (11715823_x_at) / RFU IGFBP7 (11715501_s_at) / Fold change /veh IGFBP7 (11715501_s_at) / RFU REEP3 (11722064_at) / Fold change /veh REEP3 (11722064_at) / RFU IGLL1 (11728026_x_at) / Fold change /veh IGLL1 (11728026_x_at): dose or concentration left out as unconfirmed
Conditions: ProbeSet 11753616_s_at; LIST B

## Nc1ccc(-c2cccs2)cc1NC(=O)c1ccc2c(c1)cc(C1CC1)n2CCN1CCOCC1 [ACY-1035]
  Fold change vs veh, ARL8B: 0.90
